Experimental data taken from patent publication US10752626B2, “Iso-citrate dehydrogenase (IDH) inhibitor” (SHANGHAI METON PHARMACEUTICAL CO., LTD, priority 2016, dated 2020).
pIC50: −log10 of the molar value.

Legend:
IDH1 R132H = IDH1 R132H (Homo sapiens (Human), UniProt O75874, R132H); assay: Biochemical assay for inhibition of mutant IDH1 R132H; details: tested in triplet
Text: (§1) The present disclosure provides a biochemical assay method for detecting the IDH inhibition and selectivity of the compounds by detecting IDH enzyme activity directly.
(§2) Wild-type IDH enzyme could convert NADP^+ to NADPH when it catalyzes the α-KG producing reaction. Mutant IDH enzyme could convert NADPH to NADP^+ when it catalyzes the D-2-HG producing reaction. So the activity of wild-type and mutant IDH1/2 could be measured by monitoring NADPH level change: in the reaction catalyzed by wild-type IDH1/2, the newly generated NADPH is utilized instantly by coupled diaphorase-resazurin reaction to generate resorufin which is fluorescent (at Excitation 544 nm, Emission 590 nm) and thus NADPH is monitored indirectly; while in the reaction catalyzed by mutant IDH1/2, NADPH is directly monitored as it is fluorescent (at Excitation 340 nm, Emission 460 nm). By monitoring the change of NADPH level in the reaction, the enzyme activity could be determined rapidly and efficiently, IC50 of a compound could also be assayed.
(§3) The test compounds were prepared into 50 mM stock solutions in DMSO and stored at −20° C. Each test compound stock was further diluted to obtain a 100× stock solution at a concentration of 200 μM, 100 μM, 50 μM, 25 μM, 12.5 jμM, 6.25 μM and 3.125 μM, respectively, for the final use on the day of test.
(§4) Inhibition of Mutant IDHJ (R132H or R132C):
(§5) Solution A was prepared by combining 1 M Tris-HCl pH7.5 (300 μL), 5 M NaCl (450 μL), 1 M MgCl2 (150 μL), 1 M DTT (15 μL), 20 mg/mL BSA (37.5 μL), 20 mM NADPH (20 μL), and 0.5 mM α-KG (40 μL), followed by adding deionized water to a final volume of 15 mL.
(§6) Reaction buffer was prepared by combining 1 M Tris-HCl pH 7.5 (200 μL), 5 M NaCl (300 μL), 1 M MgCl2 (100 μL), 1 M DTT (10 μL) and 20 mg/mL BSA (25 μL), followed by adding deionized water to a final volume of 10 mL.
(§7) Solution B was prepared by combining the reaction buffer (5 mL) and […] IDH1-R132H (5.21 μL) or 107 μM IDH1-R132C (4.67 μL).
(§8) 148 μL Solution A was added into each sample well of a 96-well plate P1, and then 2 μL of the test compound solution at each concentration and 2 μL of DMSO (negative control/blank) were added into individual sample well respectively. 50 μL of Solution B was added into each of the sample wells having test compounds and one sample well having DMSO only, and 50 μL of reaction buffer was added into another sample well having DMSO only, respectively. P1 was put into BioTek Synergy H4 Microplate reader (BioTek Instruments Inc., Winooski, U.S.), and the program was set as follows: 37° C., shake plate 5 seconds, run kinetic mode, total detection time 20 min, detection intervals 40 seconds, detection mode fluorescence (at Excitation 340 nm, Emission 460 nm). The data were exported, the relative enzyme activity and the half-maximal inhibitory concentration (IC50) for the test compound were calculated. Relative enzyme activity was calculated as the absolute value of the slope of the Emission 460 reads of each well plotted against time (which represents the conversion rate of ca-KG to 2-HG through IDH1 modulated utilization of NADPH). The Dose-response curve was drawn and the IC50 was calculated via fitting. The IDH inhibition and selectivity of each test compound can be evaluated according to the effect of the compounds on the IDH enzyme activity.
(§9) The IDH inhibition activity of the compounds were assessed according to Test 5 of the Biological evaluation section. The test for mutant IDH1 R132H/R132C inhibition of each compound was carried out in triplet. For IDH1 R132H, the enzyme activity of exemplary Compounds 16, 21, 22, 23, 24 and 31 is plotted as a function of logarithm of the concentration of the compound in FIGS. 8A-8C, 9A-9C, 10A-10C, 11A-11C, 12A-12C and 13A-13C, respectively. […]

IDH1 R132C [1] = target: T1, IDH1 R132C (Homo sapiens (Human), UniProt O75874, R132C); assay: Biochemical assay for inhibition of mutant IDH1 R132C; details: tested in triplet
Text: as §1, §2, §3, §4, §5, §6, §7, §8, §9
Target sequence in this assay (O75874 whole entry R132C): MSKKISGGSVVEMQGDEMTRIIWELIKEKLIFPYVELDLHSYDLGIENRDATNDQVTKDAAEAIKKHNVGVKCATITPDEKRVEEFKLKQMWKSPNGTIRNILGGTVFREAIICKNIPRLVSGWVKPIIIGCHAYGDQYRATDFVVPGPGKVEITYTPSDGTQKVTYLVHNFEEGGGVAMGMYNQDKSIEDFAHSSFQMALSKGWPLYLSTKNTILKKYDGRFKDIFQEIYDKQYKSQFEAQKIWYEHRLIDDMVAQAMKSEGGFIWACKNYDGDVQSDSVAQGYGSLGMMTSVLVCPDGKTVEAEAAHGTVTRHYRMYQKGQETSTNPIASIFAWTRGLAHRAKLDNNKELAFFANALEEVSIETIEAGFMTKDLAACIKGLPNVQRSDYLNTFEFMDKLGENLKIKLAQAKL

IDH1 R132C [2] = target: T1, IDH1 R132C; assay: Improved cell-based assay: D-2-HG in HT1080 cells over-expressing D-2-HG dehydrogenase; details: 12 h
Text: The present disclosure also provides a cell based method for assaying IDH inhibition and selectivity of the compounds in human fibrosacoma cell line HT1080 and cholangiocarcinoma cell line HCCC 9810, which harbor endogenous heterozygous IDH1 R132C and R132H mutation respectively and accumulate D-2-HG Tumor derived IDH mutant lost its normal activity of producing α-KG and gained a new activity of producing D-2-HG D-2-HG is a metabolite specifically elevated in IDH mutated tumor samples.
By treating HT1080 and HCCC 9810 cells with an effective IDH inhibitor, the synthesis of D-2-HG is blocked, and D-2-HG concentration is decreased by the oxidation reaction catalyzed by D-2-HG dehydrogenase.
To perform a cell based IDH inhibitor assay, HT1080 and HCCC 9810 cells (or other cell lines harboring different IDH mutations) are cultured in DMEM supplemented with 10% FBS. The cells are treated with compounds of present disclosure at various different concentration. At various time points (between 4-24 hours) after the treatment, cell culture supernatants were removed and cells were washed with PBS for one or two times. Cell metabolites are extracted by adding 80% methanol (pre-chilled under −80° C.) in the cells, extract at 4° C. temperature for 60 min, centrifuged to remove any insoluble component. Metabolites (clear supernatant from the previous step) are lyophilized and reconstituted in pyridine containing 20 mg/ml O-methoxyamineHCl and are incubated at 70° C. for 40 minutes. After cooling down to room temperature, MTBSTFA (N-tert-Butyldimethylsilyl-N-methyltrifluoroacetamide, Sigma Aldrich) is added at a volume ratio of 4:7 (e.g., 20 μL MTBSTFA to 35 μL 20 mg/ml O-methoxyamineHCl solution) and derivation is performed at 70° C. for 30 minutes. The derived metabolites including D-2-HG are analyzed by Agilent 7890A-5750 GC/MS system. […] of the derived metabolite is injected into Agilent 7890A-5750 for D-2-HG concentration analysis. GC oven temperature is programmed from 140° C. to 260° C. at 10° C./min, from 260° C. to 310° C. at 8° C./min and hold at 310° C. for 5 min. The flow rate of carrier gas is 1 ml/min. The mass spectrometer is operated in the electron impact (EI) mode at 70 eV D-2-HG is normalized to endogenous glutamate.
The activity of IDHs in the presence of each compounds at different concentrations can be represented by relative D-2-HG concentration to negative control samples, and the IC50 value, the inhibition and selectivity for each compound can be evaluated.
The present disclosure also provides an improved cell-based assay for IDH inhibition and selectivity of the compounds, which involves stably over-expressing D-2-HG dehydrogenase in HT1080 and HCCC 9810 cells.
According to previous report, over expression of D-2-HG dehydrogenase decreases the half-life of D-2-HG in HT1080 cells (FIGS. 2A and 2B) [“D-2-hydroxyglutarate is essential for maintaining oncogenic property of mutant IDH-containing cancer cells but dispensable for cell growth”, Ma, S., et al., Oncotarget, (2015)], making the cells more sensitive to D-2-HG synthesis blockage by mutant IDH1 inhibitors. It will greatly increase the sensitivity and accurateness of this cell based assay. In the improved cell-based assay, all other steps are performed as disclosed in Test 6.
The D-2-HG inhibition activity of compounds was also assessed in the improved cell-based assay according to the method disclosed in Test 7 of the Biological evaluation section. HT1080 cells over-expressing D-2-HG dehydrogenase were cultured in 35 mm plate and treated with each of Compounds 1-37 at a concentration of 0.5 μM, 1 μM, 2.5 μM and 5 μM for 12 h, respectively, and the D-2-HG concentration was analysed. The inhibition ratio of D-2-HG in HT1080 cell by the exemplary Compounds 16, 21-24 and 31 at different concentrations were shown in Table 10.
Target sequence in this assay (O75874 2-414 R132C): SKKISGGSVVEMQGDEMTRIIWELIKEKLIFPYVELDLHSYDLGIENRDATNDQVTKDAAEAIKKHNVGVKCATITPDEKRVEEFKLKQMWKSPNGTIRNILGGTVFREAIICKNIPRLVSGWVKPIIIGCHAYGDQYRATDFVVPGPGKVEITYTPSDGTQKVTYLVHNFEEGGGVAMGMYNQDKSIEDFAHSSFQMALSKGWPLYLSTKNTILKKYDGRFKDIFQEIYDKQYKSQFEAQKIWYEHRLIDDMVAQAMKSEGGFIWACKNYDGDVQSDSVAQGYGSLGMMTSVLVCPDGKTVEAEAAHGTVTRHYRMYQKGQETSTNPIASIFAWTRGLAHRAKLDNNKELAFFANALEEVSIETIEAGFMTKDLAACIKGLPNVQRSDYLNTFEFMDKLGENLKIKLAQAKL

Chain of IDH1 R132H (O75874 whole entry R132H): as the sequence (O75874 whole entry R132C) above, with C132H counted along it

SMILES	pIC50 (IDH1 R132H)	pIC50 (IDH1 R132C [1])	Inhibition ratio of D-2-HG in HT1080 cell (IDH1 R132C [2]; 0.5 μM)	Inhibition ratio of D-2-HG in HT1080 cell (IDH1 R132C [2]; 1 μM)	Inhibition ratio of D-2-HG in HT1080 cell (IDH1 R132C [2]; 2.5 μM)	Inhibition ratio of D-2-HG in HT1080 cell (IDH1 R132C [2]; 5 μM)
CCN1Cc2c(ccnc2N[C@@H](C)c2ccc(Oc3cccc(F)c3)cc2)C1=O [Compound 21, (S)-2-ethyl-4-((1-(4-(3-fluorophenoxy)phenyl)ethyl)amino)-2,3-dihydro-1H-pyrrolo[3,4-c]pyridin-1-one]	> 6.00	> 5.82	20.2%	18.7%	43.1%	76.1%
CCN1Cc2c(ccnc2N[C@@H](C)c2ccc(Oc3ccccc3F)cc2)C1=O [Compound 22, (S)-2-ethyl-4-((1-(4-(2-fluorophenoxy)phenyl)ethyl)amino)-2,3-dihydro-1H-pyrrolo[3,4-c]pyridin-1-one]	> 6.00	> 5.82	36.3%	53.3%	72.3%	87.8%
CCN1Cc2c(ccnc2N[C@@H](C)c2ccc(Oc3ccc(C)cc3)c(F)c2)C1=O [Compound 24, (S)-2-ethyl-4-((1-(3-fluoro-4-(p-tolyloxy)phenyl)ethyl)amino)-2,3-dihydro-1H-pyrrolo[3,4-c]pyridin-1-one]	> 6.00	> 5.82	45.5%	54.6%	72.1%	92.1%
Cc1ccc(Oc2ccc([C@H](C)Nc3nccc4c3CN(C(C)C)C4=O)cc2)cc1 [Compound 31, (S)-2-isopropyl-4-((1-(4-(p-tolyloxy)phenyl)ethyl)amino)-2,3-dihydro-1H-pyrrolo[3,4-c]pyridin-1-one]	> 6.00	> 5.82	36.9%	57.8%	68.7%	89.1%
